Biological target: human CRTH2 receptor (Homo sapiens (Human), UniProt Q9Y5Y4)
Assay: CRTH2 receptor radioligand binding assay (SPA, [3H]-PGD2 displacement)
Conditions: [3H]-PGD2 1 nM, CHO-K1-hCRTH2 cell membranes, SPA format, 3 h room temperature
Experimental: The binding of CRTH2 antagonists is determined using membranes prepared from Chinese hamster ovary cells (CHO-K1 cells) transfected with the human CRTH2 receptor (CHO-K1-hCRTH2 cells, Perkin Elmer, Cat No ES-561-C). To produce cell membranes the CHO-K1-hCRTH2 cells are cultured in suspension in CHO SFMII medium supplemented with 400 μg/ml G418. The cells are harvested by centrifugation at 300 g for 10 min at room temperature. The cell pellet is resuspended in Phosphate Buffer Saline (PBS) including a protease inhibitor mix (Complete, Roche) and adjusted to a concentration of 10E7 cells/ml. The CHO-K1-hCRTH2 cells are disrupted by nitrogen […] to obtain the membrane preparation. Cell debris is removed by centrifugation (500 g at 4° C., 30 min) and the supernatant is transferred into fresh tubes followed by a second centrifugation at 40000 g for 1 h at 4° C. to sediment the membranes. The membranes are suspended in SPA incubation buffer (50 mM Tris HCl, 10 mM MgCl2, 150 mM NaCl, 1 mM EDTA, pH 7.4) without bovine serum albumin, homogenized by passing through a single use needle (Terumo, 23G×1″), and stored in aliquots at −80° C.
The CRTH2 receptor binding assay is performed in a scintillation proximity assay (SPA) format with the radioligand [^3H]-PGD2 (Perkin Elmer, NET616000MC). CHO-K1-hCRTH2 cell membranes are again homogenized by passing through a single use needle (Terumo, 23G×1″) and diluted in SPA incubation buffer in suitable concentrations (0.5-10 μg protein/well). The SPA assay is set up in 96 well microtiter plates (Perkin Elmer, CatNo. 6005040) in SPA incubation buffer with a final volume of 200 μl per well and final concentration of 50 mM Tris-HCl, 10 mM MgCl2, 150 mM NaCl, 1 mM EDTA pH 7.4, 0.1% bovine serum albumin). The SPA assay mixture contains 60 μl of the membrane suspension, 80 μl of Wheat Germ Agglutinin coated PVT beads (GE Healthcare, RPNQ-0001, 0.3 mg/well), 40 μl of [3H]-PGD2 diluted in SPA buffer to a final concentration of 1 nM (50 000 dpm) and 20 μl of the test compound (dissolved in dimethylsulfoxid). The SPA assay mixture is incubated for 3 h at room temperature. Bound radioactivity is determined with a scintillation counter (Micro Beta Trilux, Wallac).
The binding of [^3H]-PGD2 to CHO-K1-hCRTH2 cell membranes is determined in the absence (total binding, Bo) and presence (non-specific binding, NSB) of unlabelled PGD2 (1 μM, Cayman Chemical, Cat No 12010) or a reference CRTH2 antagonist (10 μM CAY10471, Cayman Chemical, Cat No 10006735).
Determination of the affinity of a test compound is calculated by subtraction of the non-specific binding (NSB) from the total binding (Bo) or the binding in the presence of the test compound (B) at a given compound concentration. […] The Bo-NSB value is set to 0% inhibition.

human CRTH2 receptor, sequence (Q9Y5Y4 whole entry): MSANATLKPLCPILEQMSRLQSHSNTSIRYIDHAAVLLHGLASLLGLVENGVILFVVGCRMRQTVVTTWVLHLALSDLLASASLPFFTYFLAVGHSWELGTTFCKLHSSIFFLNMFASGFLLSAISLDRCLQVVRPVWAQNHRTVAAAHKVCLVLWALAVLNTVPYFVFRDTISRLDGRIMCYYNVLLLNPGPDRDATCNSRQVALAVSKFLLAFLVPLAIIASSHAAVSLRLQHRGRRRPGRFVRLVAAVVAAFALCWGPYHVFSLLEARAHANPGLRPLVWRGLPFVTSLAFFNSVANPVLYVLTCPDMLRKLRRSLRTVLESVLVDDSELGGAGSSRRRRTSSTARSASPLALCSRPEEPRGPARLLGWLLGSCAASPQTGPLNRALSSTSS

Row | SMILES | Ki [nM]
1 | CCCc1nn(Cc2ccc(NC(=O)c3ccc(C(F)(F)F)cc3C)cc2)c(C(C)C)c1CC(=O)O [Example 2.36] | 0.7
2 | CCCc1nn(Cc2ccc(NC(=O)c3ccc(C(F)(F)F)cc3)cc2)c(C(C)C)c1CC(=O)O [Example 2.41] | 0.2
3 | Cc1nn(Cc2ccc(/C=C/c3ccc(C(F)(F)F)cc3)cc2)c(C)c1CC(=O)O [Example 12.2, (3,5-Dimethyl-1-{4-[(E)-2-(4-trifluoromethyl-phenyl)-vinyl]-benzyl}-1H-pyrazol-4-yl)-acetic acid] | 56.3
4 | CCc1nn(Cc2ccc(OCc3ccc(Cl)c(C(F)(F)F)c3)cc2)c(CC)c1CC(=O)O [Example 13.7] | 4.8

More lines, in order of falling Ki, values ahead:

Row | Ki [nM] | SMILES
5 | 1.6 | CCCc1nn(Cc2ccc(NC(=O)c3ccccc3)cc2)c(C(C)C)c1CC(=O)O [Example 2.39]
6 | 1 | CCCc1nn(Cc2ccc(NC(=O)c3ccc(Cl)cc3C)cc2)c(C(C)C)c1CC(=O)O [Example 2.38]
7 | 0.4 | CCCc1nn(Cc2ccc(NC(=O)c3ccc(Cl)cc3)cc2)c(C(C)C)c1CC(=O)O [Example 2.37]
8 | 0.2 | CCCc1nn(Cc2ccc(NC(=O)c3ccc(Cl)c(Cl)c3)cc2)c(C(C)C)c1CC(=O)O [Example 2.40]
9 | 0.1 | CCCc1nn(Cc2ccc(NC(=O)c3ccc4ccccc4c3)cc2)c(C(C)C)c1CC(=O)O [Example 2.42]

— US8791272B2, “Pyrazole compounds as CRTH2 antagonists” (Boehringer Ingelheim International GmbH, priority 2011, dated 2014)
